Measurements reported in US5908842A, “Substituted 2-acylamino-pyridines as inhibitors of nitric oxide synthase” (Merck & Co., Inc., priority 1997, dated 1999).

Molecular target: Human Inducible Nitric Oxide Synthase (Homo sapiens, UniProt P35228)
Test: Inhibition of human inducible nitric oxide synthase (formation of L-[3H]citrulline from L-[3H]arginine)
Assay type: biochemical
Conditions: 1 μM L-Arg, pH 7.5, room temperature, 30 minutes; for inhibition at 50 µM: 50 μM inhibitor
Excerpt: J Lowenstein and S. H. Snyder in Methods in Enzymology, Vol. 233, L. Packer, ed., Academic Press, NY, 1994, Ch.26, pp. 264-269.
Various assays for NOS activity have been reported in the literature and are reviewed in the following: M. E. Murphy and E. Noack in Methods in Enzymology, Vol. 233, L. Packer, ed., Academic Press, NY, 1994, Ch.26, pp. 240-250 and J. M. Hevel and M. A. Marletta in Methods in Enzymology, Vol. 233, L. Packer, ed., Academic Press, NY, 1994, Ch.26, pp. 250-258. Details for the assay protocols to measure NOS activity are as follows:
NOS activity is measured as the formation of L-[2,3,4,5-^3 H]Citrullinefrom L-[2,3,4,5-^3 H]Arginine. The incubation buffer (100 μL) contained; 100 mM TES, pH 7.5, 5 μM FAD, 5 μM FMN, 10 μM BH4, 0.5 mM NADPH, 0.5 mM DTT, 0.5 mg/mL BSA, 2 mM CaCl2, 10 μg/mL calmodulin (bovine), 1 μM L-Arg, 0.2 μCi L-[2,3,4,5-^3 H]Arg, and the inhibitor in aqueous DMSO (max. 5 %). The reaction is initiated by addition of enzyme. Incubations are performed at room temperature for 30 minutes and stopped by the addition of an equal volume of quenching buffer consisting of 200 mM sodium citrate, pH 2.2, 0.02% sodium azide. Reaction products are separated by passing through a cation exchange resin and quantitated as cpm by scintillation counting. Percent inhibition is calculated relative to enzyme incubated without inhibitor according to: % inhibition =[…](cpm L-[2,3,4,5-^3 H]Cit with inhibitor/cpm L-[2,3,4,5-^3 H]Cit without inhibitor).

SMILES | IC50 [µM] | inhibition at 50 µM [%]
Cc1ccc(NC(=O)Nc2cc(C)ccn2)cc1 [Example 1, N-(2-(4-Methylpyridyl))-N'-(4-methylphenyl)-urea] | < 50 | 54
Cc1ccnc(NC(N)=S)c1 [Example 2, N-(2-(4-Methylpyridyl))-thiourea] | < 50 | 63
Cc1cc(C)nc(NC(N)=S)c1 [Example 3, N-(2-(4,6-dimethylpyridyl))-thiourea] | < 50 | 75
C=CCNC(=S)Nc1ccc(C(F)(F)F)cn1 [Example 4, N-(2-(5-trifluoromethylpyridyl))-N'-allyl-thiourea] | < 10 | 86
C=CCNC(=S)Nc1cc(C)cc(C)n1 [Example 5, N-(2-(4,6-dimethylpyridyl))-N'-allyl-thiourea] | < 50 | 51
Cc1ccnc(NC(=S)NC(C)C)c1 [Example 6, N-(2-(4-Methylpyridyl))-N'-isopropyl-thiourea] | < 1 | 100
CCNC(=S)Nc1cc(C)ccn1 [Example 7, N-(2-(4-Methylpyridyl))-N'-ethyl-thiourea] | < 10 | 
Cc1ccnc(NC(=S)Nc2ccccc2)c1 [Example 8, N-(2-(4-Methylpyridyl))-N'-phenyl-thiourea] |  | 50
S=C(Nc1ccc(Br)cc1)Nc1ccccn1 [Example 9, N-(2-Pyridyl)-N'-(4-bromophenyl)-thiourea] | < 50 | 55
Cc1ccnc(NC(=S)Nc2cccc3ccccc23)c1 [Example 10, N-(2-(4-Methylpyridyl))-N'-(1-naphthyl)-thiourea] |  | 54
Cc1ccnc(NC(=S)Nc2cccc(F)c2)c1 [Example 11, N-(2-(4-Methylpyridyl))-N'-(3-fluorophenyl)-thiourea] | < 50 | 70
Cc1ccnc(NC(=S)NCc2ccccc2)c1 [Example 12] | < 50 | 76
Cc1ccnc(NC(=S)NC2CC(C)CC(C)(C)C2)c1 (stereo not shown) [Example 13, N-(2-(4-Methylpyridyl))-N'-(3,3,,5-trimethylcyclohexyl)-thiourea] | < 50 | 57
Cc1ccnc(NC(=O)NC(=O)c2ccccc2)c1 [Example 14, N-(2-(4-Methylpyridyl))-N'-benzoyl-urea] | < 10 | 96
Cc1ccnc(NC(=S)NCCC[C@H](N)C(=O)O)c1 [Example 15, N-(2-(4-Methylpyridyl))-N'-(((S)-4-amino-4-carboxy)-n-butyl)-thiourea] | < 10 | 85
CCN(CC)S(=O)(=O)NC(=O)Nc1ccccn1 [Example 16, N-(2-Pyridyl)-N'-(diethylaminosulfonyl)-urea] | < 10 | 55
CCN(CC)S(=O)(=O)NC(=O)Nc1ncccc1C [Example 17] | < 10 | 
CCN(CC)S(=O)(=O)NC(=O)Nc1cc(C)ccn1 [Example 18] | < 1 | 92
CCN(CC)S(=O)(=O)NC(=O)Nc1ccc(C)cn1 [Example 19] | < 50 | 
CCN(CC)S(=O)(=O)N(C)C(=O)Nc1cc(C)ccn1 [Example 20] | < 1 | 
COC(=O)C(=O)Nc1cc(C)ccn1 [Example 21, Oxalamide, N-(4-methyl-2-pyridyl), methyl ester] | < 1 | 
COC(=O)CC(=O)Nc1cc(C)ccn1 [Example 22, Malonamide, N-(4-methyl-2-pyridyl), methyl ester] | > 50 | 57
